Reference: patent US9796706B2, “Inhibitors of Jun N-terminal kinase” (IMAGO PHARMACEUTICALS, INC., priority 2009, dated 2017)

Key:
Type in all cases: biochemical
Settings in all cases: procedures of Example 14 (TR-FRET)
JNK3 = JNK3 (Homo sapiens (Human), UniProt P53779); assay: JNK3 TR-FRET kinase assay (Example 14)
Method in brief: (§1)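 Two TR-FRET formats were used for each JNK isoform. In the direct one, preactivated aJNK phosphorylated EPIW-1 at about 1 mM final ATP (RT, 15 min). Both were EDTA-quenched and read by HTRF.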

JNK1 = JNK1 (Homo sapiens (Human), UniProt P45983); assay: JNK1 TR-FRET kinase assay (Example 14)
Sequence of JNK1 (P45983 other isoform, or with tags, fused parts or gaps isoform P45983-2, species assumed): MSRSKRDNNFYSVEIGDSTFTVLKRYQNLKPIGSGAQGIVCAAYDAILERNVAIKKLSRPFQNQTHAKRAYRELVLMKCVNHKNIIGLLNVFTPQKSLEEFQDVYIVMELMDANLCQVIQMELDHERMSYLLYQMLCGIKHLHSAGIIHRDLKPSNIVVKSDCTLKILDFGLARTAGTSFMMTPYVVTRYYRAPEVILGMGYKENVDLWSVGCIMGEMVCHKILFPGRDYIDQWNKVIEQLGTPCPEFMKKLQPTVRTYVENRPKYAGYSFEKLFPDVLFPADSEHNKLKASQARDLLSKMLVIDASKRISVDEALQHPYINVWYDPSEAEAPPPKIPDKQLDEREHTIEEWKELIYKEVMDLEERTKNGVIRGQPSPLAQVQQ
Method in brief: as §1

JNK2 = JNK2 (Homo sapiens (Human), UniProt P45984); assay: JNK2 TR-FRET kinase assay (Example 14)
Sequence of JNK2 (P45984 whole entry, species assumed): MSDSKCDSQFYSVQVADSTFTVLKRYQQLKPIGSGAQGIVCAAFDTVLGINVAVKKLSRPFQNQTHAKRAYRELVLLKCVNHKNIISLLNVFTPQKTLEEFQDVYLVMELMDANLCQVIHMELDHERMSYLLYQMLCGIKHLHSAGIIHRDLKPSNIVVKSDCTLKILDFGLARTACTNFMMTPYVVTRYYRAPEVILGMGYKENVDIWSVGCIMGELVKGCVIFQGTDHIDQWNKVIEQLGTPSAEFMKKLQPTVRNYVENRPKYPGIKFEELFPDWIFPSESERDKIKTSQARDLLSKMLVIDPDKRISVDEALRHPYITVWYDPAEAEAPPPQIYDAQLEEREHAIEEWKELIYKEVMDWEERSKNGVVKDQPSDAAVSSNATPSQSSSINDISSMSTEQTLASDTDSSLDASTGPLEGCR
Method in brief: as §1

Sequence of JNK3 (P53779 whole entry, species assumed, canonical isoform): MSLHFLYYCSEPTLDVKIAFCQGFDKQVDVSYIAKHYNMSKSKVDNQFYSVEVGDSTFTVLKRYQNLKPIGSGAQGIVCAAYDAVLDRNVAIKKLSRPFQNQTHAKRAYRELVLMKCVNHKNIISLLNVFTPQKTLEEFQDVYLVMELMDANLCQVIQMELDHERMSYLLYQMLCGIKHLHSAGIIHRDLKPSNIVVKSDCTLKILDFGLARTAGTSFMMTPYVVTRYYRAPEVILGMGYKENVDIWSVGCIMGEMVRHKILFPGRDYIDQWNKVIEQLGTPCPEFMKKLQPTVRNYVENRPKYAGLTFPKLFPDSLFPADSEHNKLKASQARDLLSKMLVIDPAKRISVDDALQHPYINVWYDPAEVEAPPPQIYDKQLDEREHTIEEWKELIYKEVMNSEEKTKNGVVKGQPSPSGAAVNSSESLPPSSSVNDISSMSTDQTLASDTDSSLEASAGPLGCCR

Row | Structure (SMILES) | IC50 (JNK3) | IC50 (JNK1) | IC50 (JNK2)
1 | O=C(CN1C(=O)CCc2ccc(Cl)cc21)Nc1scc(Br)c1-c1ncn[nH]1 [N-(4-bromo-3-(1H-1,2,4-triazol-5-yl)thiophen-2-yl)-2-(7-chloro-2-oxo-3,4-dihydroquinolin-1(2H)-yl)acetamide] | < 100 nM | < 100 nM | < 100 nM
2 | N#Cc1ccc2ccc(=O)n(CC(=O)Nc3scc(Br)c3-c3ncn[nH]3)c2c1 [N-(4-bromo-3-(1H-1,2,4-triazol-5-yl)thiophen-2-yl)-2-(7-cyano-2-oxoquinolin-1(2H)-yl)acetamide] | < 100 nM | < 100 nM | < 100 nM
3 | O=C(Cn1c(=O)ccc2cc(C(F)(F)F)c(F)cc21)Nc1scc(Br)c1-c1ncn[nH]1 [N-(4-bromo-3-(1H-1,2,4-triazol-5-yl)thiophen-2-yl)-2-(7-fluoro-2-oxo-6-(trifluoromethyl)quinolin-1(2H)-yl)acetamide] | < 100 nM | < 100 nM | < 100 nM
4 | O=C(Cn1c(=O)ccc2ccc(F)cc21)Nc1scc(Br)c1-c1ncn[nH]1 [N-(4-bromo-3-(1H-1,2,4-triazol-5-yl)thiophen-2-yl)-2-(7-fluoro-2-oxoquinolin-1(2H)-yl)acetamide] | < 100 nM | < 100 nM | < 100 nM
5 | O=C(Cc1cc(F)cc2ncccc12)Nc1scc(Br)c1-c1ncn[nH]1 [N-(4-bromo-3-(1H-1,2,4-triazol-5-yl)thiophen-2-yl)-2-(7-fluoroquinolin-5-yl)acetamide] | < 100 nM | < 100 nM | 100 to 10000 nM
6 | O=C(Cc1ccc(F)c2cnccc12)Nc1scc(Br)c1-c1ncn[nH]1 [N-(4-bromo-3-(1H-1,2,4-triazol-5-yl)thiophen-2-yl)-2-(8-fluoroisoquinolin-5-yl)acetamide] | < 100 nM | < 100 nM | < 100 nM
7 | O=C(Cc1ccc(F)c2ncccc12)Nc1scc(Br)c1-c1ncn[nH]1 [N-(4-bromo-3-(1H-1,2,4-triazol-5-yl)thiophen-2-yl)-2-(8-fluoroquinolin-5-yl)acetamide] | < 100 nM | < 100 nM | 100 to 10000 nM
8 | O=C(Cc1cccc2nccn12)Nc1scc(Br)c1-c1ncn[nH]1 [N-(4-bromo-3-(1H-1,2,4-triazol-5-yl)thiophen-2-yl)-2-(imidazo[1,2-a]pyridin-5-yl)acetamide] | 100 to 10000 nM | < 100 nM | 100 to 10000 nM
9 | O=C(Cc1cccc2cnccc12)Nc1scc(Br)c1-c1ncn[nH]1 [N-(4-bromo-3-(1H-1,2,4-triazol-5-yl)thiophen-2-yl)-2-(isoquinolin-5-yl)acetamide] | < 100 nM | < 100 nM | < 100 nM
10 | O=C(Cc1cccc2ccncc12)Nc1scc(Br)c1-c1ncn[nH]1 [N-(4-bromo-3-(1H-1,2,4-triazol-5-yl)thiophen-2-yl)-2-(isoquinolin-8-yl)acetamide] | < 100 nM | < 100 nM | 100 to 10000 nM
11 | O=C(Cc1cccc2ncccc12)Nc1scc(Br)c1-c1ncn[nH]1 [N-(4-bromo-3-(1H-1,2,4-triazol-5-yl)thiophen-2-yl)-2-(quinolin-5-yl)acetamide] | < 100 nM | < 100 nM | < 100 nM
12 | O=C(Cn1c(=O)ccc2cc(C(F)(F)F)ccc21)Nc1scc(Br)c1-n1nccn1 [N-(4-bromo-3-(2H-1,2,3-triazol-2-yl)thiophen-2-yl)-2-(2-oxo-6-(trifluoromethyl)quinolin-1(2H)-yl)acetamide] | < 100 nM | < 100 nM | 100 to 10000 nM
13 | O=C(CN1C(=O)C(F)(F)c2ccccc21)Nc1scc(Br)c1-c1nnc[nH]1 [N-(4-bromo-3-(4H-1,2,4-triazol-3-yl)thiophen-2-yl)-2-(3,3-difluoro-2-oxoindolin-1-yl)acetamide] | 100 to 10000 nM | < 100 nM | 100 to 10000 nM
14 | O=C(Cc1cc(C(F)(F)F)c2cccnc2c1)Nc1scc(Br)c1-c1nnc[nH]1 [N-(4-bromo-3-(4H-1,2,4-triazol-3-yl)thiophen-2-yl)-2-(5-(trifluoromethyl)quinolin-7-yl)acetamide] | 100 to 10000 nM | 100 to 10000 nM | 100 to 10000 nM
